This note sets out measurements from ChEMBL document CHEMBL1142878, “Synthesis and cytotoxicity evaluation of substituted pyridazino[4,5-b]phenazine-5,12-diones and tri/tetra-azabenzofluorene-5,6-diones” (Eur J Med Chem, 2007).

The structures appear in SMILES notation.

A word on the IC50: it is the point on the concentration scale where inhibition reaches its midpoint. Read a low IC50 as inhibition by little substance.

Holding throughout (assay type): functional, cell-based
Experiment [1] relates to XF498. The experiment is described as follows: Anticancer activity against human XF498 cells after 48 hrs by SRB assay. As to conditions: XF498, 48 h. Background: Sulforhodamine B stains cellular protein and so reports cell mass.
The subject of experiment [2] is SK-MEL-2. Briefly: Anticancer activity against human SK-MEL-2 cells after 48 hrs by SRB assay. The settings on record: SK-MEL-2, 48 h.
The test system of experiment [3] is SK-OV-3. The experiment is described as follows: Anticancer activity against human SKOV3 cells after 48 hrs by SRB assay. As to conditions: SK-OV-3, 48 h.
The subject of experiment [4] is HCT-15. Briefly: Anticancer activity against human HCT15 cells after 48 hrs by SRB assay. The settings on record: HCT-15, 48 h.
Experiment [5] relates to A549. Briefly: Anticancer activity against human A549 cells after 48 hrs by SRB assay. The settings on record: A549, 48 h.

As for `Cc1cnc2nc3c(n2c1)C(=O)C(=O)c1cccnc1-3`, the IC50 in experiment [1] stood at 382 nM; in experiment [2] it was 286 nM; in experiment [3], 183 nM; in experiment [4], 978 nM; in experiment [5], 745 nM.

In the case of `O=C1C(=O)c2c(nc3ccc(Cl)cn23)-c2ncccc21`, the 50% inhibitory concentration (IC50) in experiment [1] stood at 124 nM; in experiment [2], 141 nM; in experiment [3] it was 46 nM; in experiment [4] it was 134 nM; in experiment [5], 126 nM.

For `Cc1ccc2nc3c(nc2c1C)C(=O)c1cnncc1C3=O`, the IC50 amounted to 13 nM in experiment [1]; 12 nM in experiment [2]; 19 nM in experiment [3]; 10 nM in experiment [4]; 13 nM in experiment [5].

Consider `O=C1c2cnncc2C(=O)c2nc3cc(OC(F)(F)F)ccc3nc21`, for which the IC50 is 98 nM in experiment [1], 85 nM in experiment [2], 63 nM in experiment [3] and 74 nM in experiment [4].

As for `CCOc1cccc2nc3c(nc12)C(=O)c1cnncc1C3=O`, the IC50 is 29 nM in experiment [1]; 15 nM in experiment [2]; 32 nM in experiment [3]; 30 nM in experiment [4]; 53 nM in experiment [5].

Regarding `COc1cccc2c1C(=O)c1c(O)c3c(c(O)c1C2=O)C[C@@](O)(C(=O)CO)C[C@@H]3O[C@H]1C[C@H](N)[C@H](O)[C@H](C)O1` [DOXORUBICIN], the IC50 in experiment [1] amounted to 112 nM; in experiment [2], 97 nM; in experiment [3] it was 181 nM; in experiment [4], 225 nM; in experiment [5] it was 118 nM.

Consider `O=C1C(=O)c2c(nc3c(C(=O)O)cccn23)-c2ncccc21`, for which the IC50 in experiment [1] is 95 nM; in experiment [2], 125 nM; in experiment [3], 56 nM; in experiment [4] it was 122 nM; in experiment [5], 117 nM.

With `Cc1cccn2c3c(nc12)-c1ncccc1C(=O)C3=O`, the IC50 in experiment [1] is 86 nM; in experiment [2], 122 nM; in experiment [3], 51 nM; in experiment [4], 123 nM; in experiment [5] it was 112 nM.

`Cc1cccc2nc3c(nc12)C(=O)c1cnncc1C3=O`: the IC50 in experiment [1] turned out to be 21 nM; in experiment [2] it was 34 nM; in experiment [3], 70 nM; in experiment [4], 18 nM; in experiment [5], 29 nM.

Regarding `Cc1cccc2nc3c(n12)C(=O)C(=O)c1cccnc1-3`, the IC50 in experiment [1] stood at 2570 nM; in experiment [2] it was 1360 nM; in experiment [3] it was 1650 nM; in experiment [4], 1450 nM; in experiment [5], 1280 nM.

As to `COc1cccc2nc3c(nc12)C(=O)c1cnncc1C3=O`, the IC50 in experiment [1] is 65 nM; in experiment [2] it was 29 nM; in experiment [3], 39 nM; in experiment [4] it was 93 nM; in experiment [5], 109 nM.

Take `O=C1C(=O)c2c(nc3ncccn23)-c2ncccc21`: the 50% inhibitory concentration (IC50) in experiment [1] came to 137 nM; in experiment [2] it was 139 nM; in experiment [3], 27 nM; in experiment [4] it was 301 nM; in experiment [5] it was 160 nM.

In the case of `CCc1cccc2nc3c(nc12)C(=O)c1cnncc1C3=O`, the IC50 is 13 nM in experiment [1]; 19 nM in experiment [2]; 34 nM in experiment [3]; 12 nM in experiment [4]; 10 nM in experiment [5].

For the compound `O=C1C(=O)c2c(nc3cnccn23)-c2ncccc21`, the IC50 in experiment [1] came to 92 nM; in experiment [2], 114 nM; in experiment [3], 18 nM; in experiment [4], 123 nM; in experiment [5] it was 98 nM.

For `CN(C)c1ccc2nc3c(nc2c1)C(=O)c1cnncc1C3=O`, the IC50 was found to be 70 nM in experiment [1]; 88 nM in experiment [2]; 31 nM in experiment [3]; 24 nM in experiment [4]; 51 nM in experiment [5].

For `O=C1c2cnncc2C(=O)c2nc3cc4c(cc3nc21)OCO4`, the IC50 in experiment [1] is 118 nM; in experiment [2], 151 nM; in experiment [3], 41 nM; in experiment [4], 116 nM; in experiment [5], 138 nM.

In the case of `O=C1c2cnncc2C(=O)c2nc3cc(C(F)(F)F)ccc3nc21`, the IC50 in experiment [1] was determined as 116 nM; in experiment [2], 116 nM; in experiment [3], 79 nM; in experiment [4] it was 195 nM; in experiment [5] it was 174 nM.

On to `COc1cc(OC)c2nc3c(nc2c1)C(=O)c1cnncc1C3=O`, for which the IC50 was determined as 33 nM in experiment [1]; 38 nM in experiment [2]; 70 nM in experiment [3]; 26 nM in experiment [4]; 44 nM in experiment [5].
